From patent US20030153618A1, “Treatment and prevention of herpes simplex infections” (priority 1999, published 2003)

Experiments:
Herpes simplex II virus = test: Back titration plaque assay: PFU counts at stated amounts of compound under test and arginine; format: cell-based, Herpes simplex II virus (BSC cells)
Method: The following experiments were conducted by back titration: Herpes simplex II virus from laboratory stocks was used. BSC cells were grown to confluence in Eagles medium with 15% fetal calf serum, 150 units per milliliter of penicillin and 100 micrograms per milliliter of streptomycin. The cultures were inoculated with 500 PFU of HS II. The virons were allowed to absorb for one hour at 25° C. The tissue cultures were then washed three times with sterile PBS to remove excess media and non-absorbed virons. The cells were then incubated at 37° C. until four-plus cytopathic effects were observed. The cells were then disrupted by slow freeze-thaw two times. The suspension was then clarified by slow speed centrifugation at 4° C. The supemanant suspension was then added to confluent BSC cultures. After one hour absorption, the cells were washed with PBS twice. The cells were overlaid in defined reagent (in triplicate) Eagles media in noble agar. The cells were then incubated at 37° C. until the plaques were easily counted, usually 40 t 72 hours. the cells were then washed two times with PBS and then fixed with 10% H2CO and a 2% sodium acetate. The cells were then stained in 0.1% crystal violet in ethanol. In the tables which follow the concentration of the compound to be tested, in micrograms per milliliter, is listed across the top of the table and the concentration of arginine in micrograms per milliliter is listed down the left side of the table, the count of plaque-forming units being shown in the matrix.

HSV, Type II = test: Direct plaque-forming unit (PFU) count in BSC cells in defined media with set lysine (or derivative):arginine ratio; format: cell-based; conditions: average of three tests
Method: Absorbed virons were absorbed in susceptible cells in chemically defined media and the number of plaques made were counted. (See Davis, B. D., et al., Microbiology, 2nd Ed., Harper & Row, 1973, Part V, and sources cited therein for procedural details and discussion of the plaque method.)
The cell line chosen was green monkey kidney cells (BSC) that have been passed greater than 41 times. […] The virons were added to a confluent lawn of BSC cells and allowed to absorb at 25° C. for one hour. The unabsorbed virons and the media were removed by washing three times in PBS. […] The control media contained a lysine/arginine ratio of 1:1. The plaques were counted when easily readable. Flasks are done in triplicate.

`CC(CCN)CC(N)C(=O)O` (stereo not drawn) [4-Methyl lysine] was tested, and the “P.F.U. Count” value (Herpes simplex II virus; compound 10 μg/ml, arginine 0 μg/ml) was 37, the “P.F.U. Count” value (Herpes simplex II virus; compound 10 μg/ml, arginine 2.5 μg/ml) was 110 and the “P.F.U. Count” value (Herpes simplex II virus; compound 10 μg/ml, arginine 5.0 μg/ml) was 3.7 × 10^3. The “P.F.U. Count” value (Herpes simplex II virus; compound 10 μg/ml, arginine 7.5 μg/ml) was 7.2 × 10^4, the “P.F.U. Count” value (Herpes simplex II virus; compound 10 μg/ml, arginine 10 μg/ml) was 9.6 × 10^4 and the “P.F.U. Count” value (Herpes simplex II virus; compound 10 μg/ml, arginine 15 μg/ml) was 2.3 × 10^5. For the same molecule, the “P.F.U. Count” value (Herpes simplex II virus; compound 10 μg/ml, arginine 20 μg/ml) was 3.1 × 10^5, the “P.F.U. Count” value (Herpes simplex II virus; compound 10 μg/ml, arginine 25 μg/ml) was 3.3 × 10^5 and the “P.F.U. Count” value (Herpes simplex II virus; compound 25 μg/ml, arginine 0 μg/ml) was 10. The “P.F.U. Count” value (Herpes simplex II virus; compound 25 μg/ml, arginine 2.5 μg/ml) was 74, the “P.F.U. Count” value (Herpes simplex II virus; compound 25 μg/ml, arginine 5.0 μg/ml) was 310 and the “P.F.U. Count” value (Herpes simplex II virus; compound 25 μg/ml, arginine 7.5 μg/ml) was 6.6 × 10^4. For the same molecule, the “P.F.U. Count” value (Herpes simplex II virus; compound 25 μg/ml, arginine 10 μg/ml) was 8.7 × 10^4, the “P.F.U. Count” value (Herpes simplex II virus; compound 25 μg/ml, arginine 15 μg/ml) was 9.6 × 10^4 and the “P.F.U. Count” value (Herpes simplex II virus; compound 25 μg/ml, arginine 20 μg/ml) was 3.3 × 10^5. The “P.F.U. Count” value (Herpes simplex II virus; compound 25 μg/ml, arginine 25 μg/ml) was 3.4 × 10^5, the “P.F.U. Count” value (Herpes simplex II virus; compound 50 μg/ml, arginine 0 μg/ml) was 0 and the “P.F.U. Count” value (Herpes simplex II virus; compound 50 μg/ml, arginine 2.5 μg/ml) was 0. The “P.F.U. Count” value (Herpes simplex II virus; compound 50 μg/ml, arginine 5.0 μg/ml) was 671, the “P.F.U. Count” value (Herpes simplex II virus; compound 50 μg/ml, arginine 7.5 μg/ml) was 5.0 × 10^4 and the “P.F.U. Count” value (Herpes simplex II virus; compound 50 μg/ml, arginine 10 μg/ml) was 7.0 × 10^4. For the same molecule, the “P.F.U. Count” value (Herpes simplex II virus; compound 50 μg/ml, arginine 15 μg/ml) was 7.9 × 10^4, the “P.F.U. Count” value (Herpes simplex II virus; compound 50 μg/ml, arginine 20 μg/ml) was 3.1 × 10^5 and the “P.F.U. Count” value (Herpes simplex II virus; compound 50 μg/ml, arginine 25 μg/ml) was 3.6 × 10^5. The “P.F.U. Count” value (Herpes simplex II virus; compound 100 μg/ml, arginine 0 μg/ml) was 0, the “P.F.U. Count” value (Herpes simplex II virus; compound 100 μg/ml, arginine 2.5 μg/ml) was 0 and the “P.F.U. Count” value (Herpes simplex II virus; compound 100 μg/ml, arginine 5.0 μg/ml) was 371. For the same molecule, the “P.F.U. Count” value (Herpes simplex II virus; compound 100 μg/ml, arginine 7.5 μg/ml) was 4.2 × 10^4, the “P.F.U. Count” value (Herpes simplex II virus; compound 100 μg/ml, arginine 10 μg/ml) was 4.0 × 10^7 and the “P.F.U. Count” value (Herpes simplex II virus; compound 100 μg/ml, arginine 15 μg/ml) was 5.0 × 10^4. The “P.F.U. Count” value (Herpes simplex II virus; compound 100 μg/ml, arginine 20 μg/ml) was 3.6 × 10^5, the “P.F.U. Count” value (Herpes simplex II virus; compound 100 μg/ml, arginine 25 μg/ml) was 3.1 × 10^5 and the “P.F.U. Count” value (Herpes simplex II virus; compound 200 μg/ml, arginine 0 μg/ml) was 0. The “P.F.U. Count” value (Herpes simplex II virus; compound 200 μg/ml, arginine 2.5 μg/ml) was 0, the “P.F.U. Count” value (Herpes simplex II virus; compound 200 μg/ml, arginine 5.0 μg/ml) was 191 and the “P.F.U. Count” value (Herpes simplex II virus; compound 200 μg/ml, arginine 7.5 μg/ml) was 1.0 × 10^4. For the same molecule, the “P.F.U. Count” value (Herpes simplex II virus; compound 200 μg/ml, arginine 10 μg/ml) was 1.8 × 10^4, the “P.F.U. Count” value (Herpes simplex II virus; compound 200 μg/ml, arginine 15 μg/ml) was 6.8 × 10^4 and the “P.F.U. Count” value (Herpes simplex II virus; compound 200 μg/ml, arginine 20 μg/ml) was 3.2 × 10^5. The “P.F.U. Count” value (Herpes simplex II virus; compound 200 μg/ml, arginine 25 μg/ml) was 3.0 × 10^5, the “P.F.U. Count” value (Herpes simplex II virus; compound 300 μg/ml, arginine 0 μg/ml) was 0 and the “P.F.U. Count” value (Herpes simplex II virus; compound 300 μg/ml, arginine 2.5 μg/ml) was 0. For the same molecule, the “P.F.U. Count” value (Herpes simplex II virus; compound 300 μg/ml, arginine 5.0 μg/ml) was 169, the “P.F.U. Count” value (Herpes simplex II virus; compound 300 μg/ml, arginine 7.5 μg/ml) was 1.1 × 10^7 and the “P.F.U. Count” value (Herpes simplex II virus; compound 300 μg/ml, arginine 10 μg/ml) was 1.9 × 10^4. For the same molecule, the “P.F.U. Count” value (Herpes simplex II virus; compound 300 μg/ml, arginine 15 μg/ml) was 2.7 × 10^4, the “P.F.U. Count” value (Herpes simplex II virus; compound 300 μg/ml, arginine 20 μg/ml) was 3.1 × 10^5 and the “P.F.U. Count” value (Herpes simplex II virus; compound 300 μg/ml, arginine 25 μg/ml) was 3.3 × 10^5. For the same molecule, the “P.F.U. Count” value (Herpes simplex II virus; compound 400 μg/ml, arginine 0 μg/ml) was 0, the “P.F.U. Count” value (Herpes simplex II virus; compound 400 μg/ml, arginine 2.5 μg/ml) was 0 and the “P.F.U. Count” value (Herpes simplex II virus; compound 400 μg/ml, arginine 5.0 μg/ml) was 671. The “P.F.U. Count” value (Herpes simplex II virus; compound 400 μg/ml, arginine 7.5 μg/ml) was 1.9 × 10^3, the “P.F.U. Count” value (Herpes simplex II virus; compound 400 μg/ml, arginine 10 μg/ml) was 1.7 × 10^4 and the “P.F.U. Count” value (Herpes simplex II virus; compound 400 μg/ml, arginine 15 μg/ml) was 2.0 × 10^4. The “P.F.U. Count” value (Herpes simplex II virus; compound 400 μg/ml, arginine 20 μg/ml) was 3.0 × 10^5, the “P.F.U. Count” value (Herpes simplex II virus; compound 400 μg/ml, arginine 25 μg/ml) was 3.3 × 10^5 and the “P.F.U. Count” value (Herpes simplex II virus; compound 500 μg/ml, arginine 0 μg/ml) was 0. The “P.F.U. Count” value (Herpes simplex II virus; compound 500 μg/ml, arginine 2.5 μg/ml) was 0, the “P.F.U. Count” value (Herpes simplex II virus; compound 500 μg/ml, arginine 5.0 μg/ml) was 239 and the “P.F.U. Count” value (Herpes simplex II virus; compound 500 μg/ml, arginine 7.5 μg/ml) was 6.7 × 10^3. The “P.F.U. Count” value (Herpes simplex II virus; compound 500 μg/ml, arginine 10 μg/ml) was 1.3 × 10^4, the “P.F.U. Count” value (Herpes simplex II virus; compound 500 μg/ml, arginine 15 μg/ml) was 1.4 × 10^4 and the “P.F.U. Count” value (Herpes simplex II virus; compound 500 μg/ml, arginine 20 μg/ml) was 2.4 × 10^5. For the same molecule, the “P.F.U. Count” value (Herpes simplex II virus; compound 500 μg/ml, arginine 25 μg/ml) was 2.9 × 10^5, the “P.F.U. Count” value (HSV, Type II; Compound Ratio to Arginine 10:1) was 541 and the “P.F.U. Count” value (HSV, Type II; Compound Ratio to Arginine 100:1) was 140.
